This note sets out measurements from patent US10829452B2, “Histone methyltransferase inhibitors” (GLOBAL BLOOD THERAPEUTICS, INC., priority 2016, dated 2020).

Structures can show the parent of a compound that is named as a salt.

The assay concerns the target T1, G9a (Homo sapiens, UniProt Q96KQ7).
T1 sequence (Q96KQ7 1-1210): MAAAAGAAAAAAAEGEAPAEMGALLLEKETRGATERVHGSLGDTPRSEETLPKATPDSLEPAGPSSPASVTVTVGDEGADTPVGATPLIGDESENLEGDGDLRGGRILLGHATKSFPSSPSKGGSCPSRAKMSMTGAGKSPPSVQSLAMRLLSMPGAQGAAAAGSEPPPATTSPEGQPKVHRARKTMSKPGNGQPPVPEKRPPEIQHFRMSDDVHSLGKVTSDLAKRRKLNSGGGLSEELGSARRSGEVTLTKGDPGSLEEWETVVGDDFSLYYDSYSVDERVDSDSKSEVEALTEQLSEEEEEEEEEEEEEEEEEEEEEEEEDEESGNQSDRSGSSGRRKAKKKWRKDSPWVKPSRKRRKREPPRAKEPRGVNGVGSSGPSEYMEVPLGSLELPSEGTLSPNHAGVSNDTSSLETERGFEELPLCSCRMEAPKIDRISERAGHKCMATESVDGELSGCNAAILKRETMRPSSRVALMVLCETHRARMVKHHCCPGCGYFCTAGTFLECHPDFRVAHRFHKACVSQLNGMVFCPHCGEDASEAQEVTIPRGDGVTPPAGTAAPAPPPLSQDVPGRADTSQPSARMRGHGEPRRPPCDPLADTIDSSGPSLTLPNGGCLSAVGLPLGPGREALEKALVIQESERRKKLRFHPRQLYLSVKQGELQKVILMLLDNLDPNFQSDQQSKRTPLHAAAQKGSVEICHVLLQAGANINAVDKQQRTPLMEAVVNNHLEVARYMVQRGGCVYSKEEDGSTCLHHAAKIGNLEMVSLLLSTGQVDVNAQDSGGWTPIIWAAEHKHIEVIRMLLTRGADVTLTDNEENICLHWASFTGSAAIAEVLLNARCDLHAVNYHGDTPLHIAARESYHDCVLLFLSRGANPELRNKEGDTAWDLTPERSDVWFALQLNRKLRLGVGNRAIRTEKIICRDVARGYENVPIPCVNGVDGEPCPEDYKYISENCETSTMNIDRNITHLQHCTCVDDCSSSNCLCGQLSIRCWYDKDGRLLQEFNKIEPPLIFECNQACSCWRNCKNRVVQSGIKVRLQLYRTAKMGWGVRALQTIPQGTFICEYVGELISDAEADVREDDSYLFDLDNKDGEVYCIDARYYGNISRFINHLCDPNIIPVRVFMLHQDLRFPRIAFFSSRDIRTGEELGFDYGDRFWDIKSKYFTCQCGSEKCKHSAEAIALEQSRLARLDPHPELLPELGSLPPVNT
The assay is described as follows: G9a AlphaLISA enzymatic activity assay. The settings on record: 0.15 nM G9a, 15 uM S-adenosyl-methionine, 100 nM biotinylated histone 3 peptide (1-21), 1 hour at room temperature; read-out: G9a in (uM) (IC50, concentration that produced 50% inhibition). The format is biochemical. The source says: The G9a AlphaLISA assay was used to detect the methyl modifications of a biotinylated histone H3 peptide by the compounds. These modifications are done by the histone methyl transferase activity of the G9a enzyme. The assay consists of reading a chemiluminescent signal at 615 nm; this signal is generated by a laser excitation at 680 nm that transfers a reactive singlet oxygen between the donor beads and acceptor beads. Donor beads are streptavidin conjugated and bind to the biotin on the peptide. Acceptor beads are conjugated with an antibody that recognizes the specific G9a methyl mark on the peptide. If there is a methyl mark on the peptide, the acceptor beads will bind to the peptide. Upon binding, the acceptor beads will be in close proximity (<200 nm) of the donor beads and when the donor beads are excited, the transfer of the oxygen can occur and a strong signal will be generated. If there is no methyl mark, the interaction between beads will not occur and signal will be at background levels.
For the assay, the following buffer was used to set up reactions: 50 mM Tris-HCl pH9, 50 mM NaCl, 0.01% Tween-20 and 1 mM DTT (added fresh prior to starting the reactions). The assay is set up by adding a final concentration of 0.15 nM G9a, 15 uM S-adenosyl-methionine and, 100 nM biotinylated histone 3 peptide (1-21). The reaction is incubated at room temperature for 1 hour, and subsequently quenched by the addition of the acceptor beads (anti-H3k9me2 AlphaLISA acceptor beads, PerkinElmer # AL117) at a final concentration of 20 ug/mL. The acceptor beads are incubated for 1 hour. After 1 hour, the donor beads are added at a final concentration of 20 ug/mL (Alpha Streptavidin donor beads, PerkinElmer #6760002). Donor beads are incubated for 0.5 hours. Both donor and acceptor beads are resuspended in AlphaLISA 5X Epigenetics Buffer 1 Kit (PerkinElmer # AL008) prior to addition to the reaction. All manipulations and incubations with the donor and acceptor beads are done in subdued light. Signal is detected in an EnVision plate reader in Alpha mode (see ACS Med Chem Lett. 2014 Jan. 2; 5(2):205-9. doi: 10.1021/m1400496h. eCollection 2014. Discovery and development of potent and selective inhibitors of histone methyltransferase g9a.)
Percent inhibition was calculated for each compound dilution and the concentration that produced 50% inhibition was calculated. This value is presented as the IC50.
Take `COc1cc2c3c(c(NCCSC)nc2cc1OCCCN1CCCC1)CCC3` [Example 120, 8-methoxy-N-[2-(methylsulfanyl)ethyl]-7-[3-(pyrrolidin-1-yl)propoxy]-1H,2H,3H-cyclopenta[c]quinolin-4-amine formate]: the IC50 came out at 0.075 µM.
The value for `COc1cc2c3c(c(NC(C)C)nc2cc1OCCCN1CCCC1)CC(C)(C)C3` [Example 54, 8-methoxy-2,2-dimethyl-N-(propan-2-yl)-7-[3-(pyrrolidin-1-yl)propoxy]-1H,2H,3H-cyclopenta[c]quinolin-4-amine formate] was 0.048 µM; that for `COc1cc2c3c(c(C4CC4)nc2cc1OCCCN1CCCC1)CCC(C)(C)N3` [Example 76, 1-[3-({5-cyclopropyl-9-methoxy-2,2-dimethyl-1H,2H,3H,4H-benzo[h]1,6-naphthyridin-8-yl}oxy)propyl]pyrrolidine formate] was 0.013 µM; that for `COc1cc2c3c(c(N[C@@H]4CCOC4)nc2cc1OCCCN1CCCC1)CCC3` [Example 17, 8-methoxy-N-[(3R)-oxolan-3-yl]-7-[3-(pyrrolidin-1-yl)propoxy]-1H,2H,3H-cyclopenta[c]quinolin-4-amine formate] was 0.21 µM.
Regarding `COc1cc2c3c(c(N(C)c4ccccc4)nc2cc1OCCCN1CCCC1)CCC3` [Example 69, 8-methoxy-N-methyl-N-phenyl-7-[3-(pyrrolidin-1-yl)propoxy]-1H,2H,3H-cyclopenta[c]quinolin-4-amine trifluoroacetate], the IC50 is more than 10 µM.
On to `COc1cc2c3c(c(N[C@H]4CCC[C@@H]4O)nc2cc1OCCCN1CCCC1)CCC3` [Example 124, (1S,25)-2-({8-methoxy-7-[3-(pyrrolidin-1-yl)propoxy]-1H,2H,3H-cyclopenta[c]quinolin-4-yl}amino)cyclopentan-1-ol formate], for which the IC50 amounted to 4.7 µM.
Regarding `CC[C@H](C)Nc1nc2cc(OCCCN3CCCC3)c(OC)cc2c2c1CCC2` [Example 99, N-[(2S)-butan-2-yl]-8-methoxy-7-[3-(pyrrolidin-1-yl)propoxy]-1H,2H,3H-cyclopenta[c]quinolin-4-amine formate], the IC50 came out at 0.023 µM.
In the case of `COc1cc2c3c(c(NC(C)C)nc2cc1OCCCN1CCCC1)CCCN3` [Example 27, 9-methoxy-N-(propan-2-yl)-8-[3-(pyrrolidin-1-yl)propoxy]-1H,2H,3H,4H-benzo[h]1,6-naphthyridin-5-amine trifluoroacetate], the IC50 is 0.006 µM.
On to `COc1cc2c3c(c(NC(C)C)nc2cc1OCCCN1CCCC1)CCCC3` [Example 13, 2-methoxy-N-(propan-2-yl)-3-[3-(pyrrolidin-1-yl)propoxy]-7,8,9,10-tetrahydrophenanthridin-6-amine formate], for which the IC50 stood at 0.042 µM.
On to `COc1cc2c3c(c(NCCO)nc2cc1OCCCN1CCCC1)CCC3` [Example 4, 2-({8-methoxy-7-[3-(pyrrolidin-1-yl)propoxy]-1H,2H,3H-cyclopenta[c]quinolin-4-yl}amino)ethan-1-oltrifluoroacetate trifluoroacetate], for which the IC50 was determined as 0.04 µM.
Take `COc1cc2c3c(c(-c4coc(C)c4)nc2cc1OCCCN1CCCC1)CCC3` [Example 90, 1-(3-{[8-methoxy-4-(5-methylfuran-3-yl)-1H,2H,3H-cyclopenta[c]quinolin-7-yl]oxy}propyl)pyrrolidine formate]: the IC50 was determined as 0.6 µM.
Turning to `COc1cc2c3c(c(NC4CC4)nc2cc1OCCCN1CCCC1)CCC3` [Example 105, N-cyclopropyl-8-methoxy-7-[3-(pyrrolidin-1-yl)propoxy]-1H,2H,3H-cyclopenta[c]quinolin-4-amine trifluoroacetate], the IC50 came out at 0.021 µM.
For `COc1cc2c3c(c(NC(C)C)nc2cc1OCCCN1CCCC1)CCN3` [Example 23, 8-methoxy-N-(propan-2-yl)-7-[3-(pyrrolidin-1-yl)propoxy]-1H,2H,3H-pyrrolo[3,2c]-quinolin-4-amine trifluoroacetate], the IC50 turned out to be 0.003 µM.
As for `COc1cc2c3c(c(NC4CC4)nc2cc1OCCCN1CCCC1)CCCC3` [Example 19, N-cyclopropyl-2-methoxy-3-[3-(pyrrolidin-1-yl)propoxy]-7,8,9,10-tetrahydrophenanthridin-6-amine formate], the IC50 worked out at 0.057 µM.
In the case of `COc1cc2c3c(c(NC(C)C)nc2cc1OCC1CCN(C)C1)CCC3` (stereo not shown) [Example 11, 8-methoxy-7-[(1-methylpyrrolidin-3-yl)methoxy]-N-(propan-2-yl)-1H,2H,3H-cyclopenta[c]quinolin-4-amine trifluoroacetate], the IC50 was 0.27 µM.
As to `COc1cc2c3c(c(NC(C)C)nc2cc1OCCCN1CCCC1)CCC(C)N3` (stereo not shown) [Example 30, 9-methoxy-2-methyl-N-(propan-2-yl)-8-[3-(pyrrolidin-1-yl)propoxy]-1H,2H,3H,4H-benzo[h]1,6-naphthyridin-5-amine formate], the IC50 turned out to be 0.008 µM.
For `COc1cc2c3c(c(NCC4CC4)nc2cc1OCCCN1CCCC1)CC(C)(C)C3` [Example 97, N-(cyclopropylmethyl)-8-methoxy-2,2-dimethyl-7-[3-(pyrrolidin-1-yl)propoxy]-1H,2H,3H-cyclopenta[c]quinolin-4-amine formate], the IC50 amounted to 0.084 µM.
Next, `COc1cc2c3c(c(NC(C)C)nc2cc1OCCCN1CCCC1)CC(O)CC3` (stereo not shown) [Example 68, 2-methoxy-6-[(propan-2-yl)amino]-3-[3-(pyrrolidin-1-yl)propoxy]-7,8,9,10-tetrahydrophenanthridin-8-ol trifluoroacetate]: 0.11 µM; `COc1cc2c3c(c(C4CC4)nc2cc1OCCCN1CCCC1)CCC(C)N3` (stereo not shown) [Example 32, 1-[3-({5-cyclopropyl-9-methoxy-2-methyl-1H,2H,3H,4H-benzo[h]1,6-naphthyridin-8-yl}oxy)propyl]pyrrolidine trifluoroacetate]: 0.022 µM; `CNc1nc2cc(OCCCN3CCCC3)c(OC)cc2c2c1CC(C)(C)N2` [Example 24, 8-methoxy-N,2,2-trimethyl-7-[3-(pyrrolidin-1-yl)propoxy]-1H,2H,3H-pyrrolo[3,2-c]quinolin-4-amine trifluoroacetate]: 0.006 µM.
Regarding `COc1cc2c3c(c(N[C@H](C)C4CC4)nc2cc1OCCCN1CCCC1)CCC3` [Example 89, N-[(1R)-1-cyclopropylethyl]-8-methoxy-7-[3-(pyrrolidin-1-yl)propoxy]-1H,2H,3H-cyclopenta[c]quinolin-4-amine formate], the IC50 came to 0.14 µM.
`COc1cc2c3c(c(-c4ccccc4)nc2cc1OCCCN1CCCC1)CC(C)(C)N3` [Example 114, 1-[3-({8-methoxy-2,2-dimethyl-4-phenyl-1H,2H,3H-pyrrolo[3,2-c]quinolin-7-yl}oxy)propyl]pyrrolidine formate]: the IC50 is 0.17 µM.
